System: microorganisms usually present in the environment
Experiment: Counting of microorganisms on a growth plate after incubation (bacteriostatic effect of solutions)
Type: cell-based
Conditions: for cfu/plate: control 597 cfu; for Reduction % observed: vs control 597 cfu
Method: The counting of microorganisms was carried out on a growth plate, after the incubation period (as regards the type of microorganisms, they are microorganisms usually present in the environment). […] Then, the bacteriostatic effect was evaluated of:
a solution of selenium phloroglucinol (20 ppm of selenium, i.e. corresponding to 0.002% by weight);
three solutions of zinc PCA, with a concentration of zinc of 10 ppm, 20 ppm and 30 ppm respectively (i.e. respectively corresponding to 0.001%, 0.002% and 0.003% by weight).
In order to evaluate the synergic effect between zinc and antioxidizing agent, the tests indicated above were repeated, using three solutions separately, respectively containing: selenium 20 ppm+zinc 10 ppm; selenium 20 ppm+zinc 20 ppm; selenium 20 ppm+zinc 30 ppm.

**Q.** `O=C1CC[C@@H](C(=O)[O-])N1.O=C1CC[C@@H](C(=O)[O-])N1.[Zn+2]` [Zinc] was tested. Which cfu/plate (solution 10 ppm) did it give?
**A.** 571 cfu/plate

**Q.** What about the Reduction % observed (solution 10 ppm) of the same molecule?
**A.** 5.1%

**Q.** What about the cfu/plate (solution 20 ppm) of the same molecule?
**A.** 550 cfu/plate

**Q.** What about the Reduction % observed (solution 20 ppm) of the same molecule?
**A.** 6.0%

**Q.** And the cfu/plate (solution 30 ppm)?
**A.** 491 cfu/plate

**Q.** What about the Reduction % observed (solution 30 ppm) of the same molecule?
**A.** 17.1%
